Measured values reported in patent EP1763509B1, “ALPHA-HELICAL MIMETICS” (THE WALTER AND ELIZA HALL INSTITUTE OF MEDICAL RESEARCH, priority 2004, dated 2006).

What was measured:
Bcl-xLΔ25 = target: T1, Bcl-xLΔ25 (Homo sapiens, UniProt Q07817); experiment: Alphascreen GST competition binding assay, benzoylurea compounds vs Biotinylated Bim BH3-26 peptide on GST tagged Bcl-xL ΔC25 protein; conditions: GST tagged Bcl-xL ΔC25 protein 0.6 nM, Biotinylated Bim BH3-26 peptide 5.0 nM, 4 hours at room temperature; n.b. = not binding in the assay conditions
T1 construct: GST tagged Bcl-xL ΔC25 protein
T1 sequence (Q07817 1-208 limits assumed, stated change not applied): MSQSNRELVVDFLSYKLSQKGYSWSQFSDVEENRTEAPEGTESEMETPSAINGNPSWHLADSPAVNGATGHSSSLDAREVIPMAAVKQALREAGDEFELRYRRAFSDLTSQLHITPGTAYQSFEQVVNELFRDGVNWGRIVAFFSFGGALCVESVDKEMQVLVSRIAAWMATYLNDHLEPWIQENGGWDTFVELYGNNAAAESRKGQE

Bcl-wΔ29 = target: T2, Bcl-wΔ29 (Homo sapiens, UniProt Q92843); experiment: Alphascreen GST competition binding assay, benzoylurea compounds vs Biotinylated Bim BH3-26 peptide on GST tagged Bclw ΔC29 protein; conditions: GST tagged Bclw ΔC29 protein 0.05 nM, Biotinylated Bim BH3-26 peptide 3.0 nM, 4 hours at room temperature; values marked a tested in a separate experiment; n.b. = not binding in the assay conditions
T2 construct: GST tagged Bclw ΔC29 protein
T2 sequence (Q92843 1-164 limits assumed): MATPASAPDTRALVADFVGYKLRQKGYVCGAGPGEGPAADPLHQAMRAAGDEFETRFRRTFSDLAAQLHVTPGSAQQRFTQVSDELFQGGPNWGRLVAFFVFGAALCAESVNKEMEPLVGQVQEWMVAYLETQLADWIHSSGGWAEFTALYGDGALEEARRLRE

Mcl-1 = Mcl-1 (Homo sapiens, UniProt Q07820); experiment: Alphascreen GST competition binding assay, benzoylurea compounds vs Biotinylated Bak BH3 peptide on GST tagged Mcl-1 protein; conditions: GST tagged Mcl-1 protein 0.4 nM, Biotinylated Bak BH3 peptide 4.0 nM, 4 hours at room temperature; n.b. = not binding in the assay conditions
Mcl-1, sequence (Q07820 whole entry, species assumed): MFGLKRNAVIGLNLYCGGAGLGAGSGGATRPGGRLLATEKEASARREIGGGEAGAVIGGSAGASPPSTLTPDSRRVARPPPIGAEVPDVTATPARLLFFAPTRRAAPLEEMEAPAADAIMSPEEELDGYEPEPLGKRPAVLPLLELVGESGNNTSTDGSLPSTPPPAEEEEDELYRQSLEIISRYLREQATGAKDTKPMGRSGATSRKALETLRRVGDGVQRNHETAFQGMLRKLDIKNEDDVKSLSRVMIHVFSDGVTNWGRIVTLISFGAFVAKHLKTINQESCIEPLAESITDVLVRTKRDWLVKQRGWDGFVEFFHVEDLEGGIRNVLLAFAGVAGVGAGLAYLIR

SMILES | IC50 (Bcl-xLΔ25) | IC50 (Bcl-wΔ29) | IC50 (Mcl-1) | Bcl-xLΔ25 IC50 (µM) (Bcl-xLΔ25) | Mcl-1 IC50 (µM) (Mcl-1)
CCC(C)N(C(=O)N[C@@H](CSCc1ccccc1)C(=O)O)C(=O)c1cccc(-c2ccccc2)c1 (mixture of isomers) [(4)] | 148 µM | 149 µM | – | – | –
CCCN(C(=O)N[C@@H](CSCc1ccccc1)C(=O)O)C(=O)c1cccc(-c2ccccc2)c1 [(1)] | 70.1 µM | 38 µM | – | – | –
CCCCN(C(=O)N[C@@H](CSCc1ccccc1)C(=O)O)C(=O)c1cccc(-c2ccccc2)c1 [(2)] | 56.8 µM | 57 µM | – | – | –
CC(C)CN(C(=O)N[C@@H](CSCc1ccccc1)C(=O)O)C(=O)c1cccc(-c2ccccc2)c1 [(3)] | 65.8 µM | 65 µM | – | – | –
CC(C)N(C(=O)N[C@@H](CSCc1ccccc1)C(=O)O)C(=O)c1cccc(-c2ccccc2)c1 [(5)] | 153 µM | 266 µM | – | – | –
O=C(O)[C@H](CSCc1ccccc1)NC(=O)N(C(=O)c1cccc(-c2ccccc2)c1)C1CCCCC1 [(6)] | 54.2 µM | 73 µM | – | – | –
O=C(O)[C@H](CSCc1ccccc1)NC(=O)N(CC1CCCCC1)C(=O)c1cccc(-c2ccccc2)c1 [(7)] | 45.2 µM | 37 µM | – | – | –
O=C(O)[C@H](CSCc1ccccc1)NC(=O)N(Cc1ccccc1)C(=O)c1cccc(-c2ccccc2)c1 [(8)] | 36.4 µM | 46 µM | – | – | –
Cc1ccc(CN(C(=O)N[C@@H](CSCc2ccccc2)C(=O)O)C(=O)c2ccc(-c3ccccc3)cc2)cc1 [(82)] | 27 µM | 45 µM | 169 µM | – | –
COc1ccc(CN(C(=O)N[C@@H](CSCc2ccccc2)C(=O)O)C(=O)c2ccc(-c3ccccc3)cc2)cc1 [(83)] | 14 µM | 35 µM | 77 µM | – | –
O=C(O)[C@H](CSCc1ccccc1)NC(=O)N(Cc1ccc(Cl)cc1)C(=O)c1ccc(-c2ccccc2)cc1 [(84)] | 11 µM | 27 µM | 61 µM | – | –
O=C(O)[C@H](CSCc1ccccc1)NC(=O)N(Cc1ccc(Cl)c(Cl)c1)C(=O)c1ccc(-c2ccccc2)cc1 [(85)] | – | 40 µM | 95 µM | n.b.^b | –
CCCN(C(=O)N[C@@H](CSCc1ccccc1)C(=O)O)C(=O)c1ccc(/C=C/c2ccccc2)cc1 [(86)] | 283 µM | 82 µM | – | – | n.b.^b
CCCN(C(=O)N[C@@H](CSCc1ccccc1)C(=O)O)C(=O)c1ccc(CCc2ccccc2)cc1 [(89)] | 86 µM | 50 µM | 107 µM | – | –
CCCSC[C@H](NC(=O)N(CCC)C(=O)c1cccc(C#Cc2ccccc2)c1)C(=O)O [(90)] | 22 µM | 39 µM | 70 µM | – | –
CCCN(C(=O)N[C@@H](CSCC(C)C)C(=O)O)C(=O)c1cccc(C#Cc2ccccc2)c1 [(91)] | 16 µM | 32 µM | 92 µM | – | –
CCCN(C(=O)N[C@@H](CSC(C)C)C(=O)O)C(=O)c1cccc(C#Cc2ccccc2)c1 [(92)] | 36 µM | 67 µM | – | – | n.b.^b
CCCN(C(=O)N[C@@H](CSc1ccccc1)C(=O)O)C(=O)c1cccc(C#Cc2ccccc2)c1 [(93)] | 27 µM | 26 µM | 53 µM | – | –
CCCN(C(=O)N[C@@H](CSCCc1ccccc1)C(=O)O)C(=O)c1cccc(C#Cc2ccccc2)c1 [(94)] | 23 µM | 19 µM | 46 µM | – | –
CCCCSC[C@H](NC(=O)N(CCC)C(=O)c1cccc(C#Cc2ccccc2)c1)C(=O)O [(122)] | 26 µM | – | – | – | –
CCCCCSC[C@H](NC(=O)N(CCC)C(=O)c1cccc(C#Cc2ccccc2)c1)C(=O)O [(123)] | 30 µM | – | – | – | –
CCCN(C(=O)N[C@@H](CSCCC(C)C)C(=O)O)C(=O)c1cccc(C#Cc2ccccc2)c1 [(124)] | 33 µM | – | – | – | –
CCCN(C(=O)N[C@@H](CSCC(CC)CC)C(=O)O)C(=O)c1cccc(C#Cc2ccccc2)c1 [(126)] | 90 µM | – | – | – | –
CCCN(C(=O)N[C@@H](CSCC1CCCCC1)C(=O)O)C(=O)c1cccc(C#Cc2ccccc2)c1 [(127)] | 40 µM | – | – | – | –
CCCN(C(=O)N[C@@H](CSCC1CC1)C(=O)O)C(=O)c1cccc(C#Cc2ccccc2)c1 [(128)] | 53 µM | – | – | – | –
CCCN(C(=O)N[C@@H](CSCC1CCC1)C(=O)O)C(=O)c1cccc(C#Cc2ccccc2)c1 [(129)] | 37 µM | – | – | – | –

SMILES | IC50 (Bcl-xLΔ25) | IC50 (Bcl-wΔ29) | IC50 (Mcl-1) | Bcl-xLΔ25 IC50 (µM) (Bcl-xLΔ25) | Mcl-1 IC50 (µM) (Mcl-1)
CCCCN(C(=O)N[C@@H](CSCC(C)C)C(=O)O)C(=O)c1cccc(C#Cc2ccccc2)c1 [(130)] | 39 µM | – | – | – | –
CC(C)CSC[C@H](NC(=O)N(CC(C)C)C(=O)c1cccc(C#Cc2ccccc2)c1)C(=O)O [(131)] | 20 µM | – | – | – | –
CC(C)CCN(C(=O)N[C@@H](CSCC(C)C)C(=O)O)C(=O)c1cccc(C#Cc2ccccc2)c1 [(132)] | 24 µM | – | – | – | –
CSCCN(C(=O)N[C@@H](CSCC(C)C)C(=O)O)C(=O)c1cccc(C#Cc2ccccc2)c1 [(133)] | 27 µM | – | – | – | –
CCCN(C(=O)N[C@@H](CSCc1ccccc1)C(=O)O)C(=O)c1cccc(C#Cc2ccccc2[N+](=O)[O-])c1 [(135)] | 32 µM | – | 57 µM | – | –
CCCN(C(=O)N[C@@H](CSCc1ccccc1)C(=O)O)C(=O)c1cccc(C#CCC(C)C)c1 [(136)] | 23 µM | – | 204 µM | – | –
CCCN(C(=O)N[C@@H](CSCC(C)C)C(=O)O)C(=O)c1cccc(C#Cc2ccc(F)cc2)c1 [(137)] | 9.5 µM | – | 132 µM | – | –
CCCN(C(=O)N[C@@H](CSCC(C)C)C(=O)O)C(=O)c1cccc(C#Cc2ccc(Cl)cc2)c1 [(138)] | 26 µM | – | 146 µM | – | –
CCCN(C(=O)N[C@@H](CSCC(C)C)C(=O)O)C(=O)c1cccc(C#Cc2ccc(Br)cc2)c1 [(139)] | 28 µM | – | 80 µM | – | –
CCCN(C(=O)N[C@@H](CSCC(C)C)C(=O)O)C(=O)c1cccc(C#Cc2cccc(F)c2)c1 [(140)] | 44 µM | – | – | – | n.b.^b
CCCN(C(=O)N[C@@H](CSCC(C)C)C(=O)O)C(=O)c1cccc(C#Cc2cccc(Cl)c2)c1 [(141)] | 28 µM | – | 84 µM | – | –
CCCN(C(=O)N[C@@H](CSCC(C)C)C(=O)O)C(=O)c1cccc(C#Cc2cccc(Br)c2)c1 [(142)] | 32 µM | – | 70 µM | – | –
CCCN(C(=O)N[C@@H](CSCC(C)C)C(=O)O)C(=O)c1cccc(C#Cc2ccccc2C)c1 [(143)] | 30 µM | – | 74 µM | – | –
CCCN(C(=O)N[C@@H](CSCC(C)C)C(=O)O)C(=O)c1cccc(C#Cc2cccc(C)c2)c1 [(144)] | 39 µM | – | 66 µM | – | –
CCCN(C(=O)N[C@@H](CSCC(C)C)C(=O)O)C(=O)c1cccc(C#Cc2ccc(C)cc2)c1 [(145)] | 48 µM | – | 92 µM | – | –
CCCN(C(=O)N[C@@H](CSCC(C)C)C(=O)O)C(=O)c1cccc(C#Cc2ccccc2OC)c1 [(146)] | 46 µM | – | – | – | n.b.^b
CCCN(C(=O)N[C@@H](CSCC(C)C)C(=O)O)C(=O)c1cccc(C#Cc2ccc(OC)cc2)c1 [(147)] | 50 µM | – | 85 µM | – | –
CCCN(C(=O)N[C@@H](CSCC(C)C)C(=O)O)C(=O)c1cccc(C#Cc2ccc(Oc3ccccc3)cc2)c1 [(148)] | 172 µM | – | 71 µM | – | –
CCCN(C(=O)N[C@@H](CSCC(C)C)C(=O)O)C(=O)c1cccc(C#Cc2ccc(C(C)(C)C)cc2)c1 [(149)] | 107 µM | – | – | – | –
CCCN(C(=O)N[C@@H](CSCC(C)C)C(=O)O)C(=O)c1cccc(C#Cc2ccncc2)c1 [(150)] | – | – | – | n.b.^b | –
CCCN(C(=O)N[C@@H](CSCC(C)C)C(=O)O)C(=O)c1cccc(C#Cc2cccnc2)c1 [(151)] | 212 µM | – | – | – | –
CCCN(C(=O)N[C@@H](CSCC(C)C)C(=O)NS(=O)(=O)c1ccc(Br)cc1)C(=O)c1cccc(C#Cc2ccccc2)c1 [(152)] | 48 µM | – | – | – | –
CCCN(C(=O)N[C@@H](CSCC(C)C)C(=O)NS(=O)(=O)c1cccc(Br)c1)C(=O)c1cccc(C#Cc2ccccc2)c1 [(153)] | 40 µM | – | – | – | –
CCCN(C(=O)N[C@@H](CSCC(C)C)C(=O)NS(=O)(=O)c1ccc(-c2ccccc2)cc1)C(=O)c1cccc(C#Cc2ccccc2)c1 [(154)] | 42 µM | – | – | – | –
CCCN(C(=O)N[C@@H](CSCC(C)C)C(=O)NS(=O)(=O)c1ccc(NCCSc2ccccc2)c([N+](=O)[O-])c1)C(=O)c1cccc(C#Cc2ccccc2)c1 [(156)] | 10 µM | – | – | – | –
